Reference: PubChem BioAssay AID1249 (Columbia University Molecular Screening Center, 2008)
The source made the active and inactive calls. The rule behind the calls is not given here.

Test: cellular cytoskeleton assembly phenotype modulators – imaging, high-content imaging, retest and dose response, confirmation (AID 1249);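 note: compound exposure lasted 24 h before fixation; plate controls were untreated cells for no effect and reference compound treated cells for full effect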
Conditions: cell-based imaging, cytoskeleton assembly phenotype, high content; at 2 µM; hits give high values

Compound	inhibition
Cc1ccn2c(NC(=O)c3ccco3)c(-c3ccccc3)nc2c1	12.5% (inactive)
N#Cc1c(N)nc(SCC(=O)NCc2ccc3c(c2)OCO3)c(C#N)c1-c1cccs1	0.2% (inactive)
Fc1ccc(-n2[nH]nnc2=S)cc1N1CCCC1	10.6% (inactive)
CC(C(=O)Nc1ccc(Br)cc1C(=O)c1ccccc1)N1CCOCC1 (stereo not given)	6% (inactive)
CC(C)(C)NS(=O)(=O)c1ccc(Oc2ncc(C(F)(F)F)cc2Cl)cc1	12.1% (inactive)
O=S(=O)(c1cccc(-n2cnnn2)c1)N1CCOCC1	-4.7% (inactive)
O=C(NCc1ccco1)C1CC(=O)N(c2ccc(F)cc2)C1 (stereo not given)	2.5% (inactive)
CCOC(=O)C1=C(c2ccccc2)OC(N)=C(C#N)C1c1ccco1 (stereo not given)	-12.1% (inactive)
Nc1cc(=O)nc(SCc2ccccc2)n1Cc1ccco1	3.5% (inactive)
CN1CCc2nc3sc(C#N)c(N)c3c(-c3cccs3)c2C1	5.3% (inactive)
Cc1nn(-c2cc(C)c3ccccc3n2)c2c1C1C(C2)C1(C)C (stereo not given)	3.3% (inactive)
O=c1c(-c2ccc(Br)cc2)coc2c(CN3CCOCC3)c(O)ccc12	3.1% (inactive)
CN(CC(=O)NCc1ccncc1)S(=O)(=O)c1ccc(F)cc1	2.2% (inactive)
O=C(CN1CCN(c2nc(-c3ccc(F)cc3)cs2)CC1)Nc1ccc2c(c1)OCO2	-7.5% (inactive)
O=C(CCN1C(=O)C2C3C=CC(C3)C2C1=O)NCC1CCCO1 (stereo not given)	9.9% (inactive)
Cc1nc([N+](=O)[O-])c(Br)n1CC(=O)c1ccc(Br)cc1	-7.3% (inactive)
Cc1ccc(-n2c([O-])nc(-[n+]3ccccc3)c2C=O)cc1	-7.2% (inactive)
Cc1ccc(O)c(NC(=O)C2CC(c3c(F)cccc3Cl)=NO2)c1 (stereo not given)	-4.4% (inactive)
CCC(=O)N1c2ccc(S(=O)(=O)CCC(=O)N3CCn4c3nc3ccccc34)cc2CC1C (stereo not given)	0% (inactive)
CCOc1cc(S(=O)(=O)Nc2ccccc2CC)ccc1Cl	-1.7% (inactive)

Compound	inhibition
O=C1CCSc2cccc3cccc(c23)N1	-5.2% (inactive)
O=C(NC(Cc1c[nH]c2ccccc12)C(=O)O)c1ccco1 (stereo not given)	-3% (inactive)
Cc1cccc(NC(=O)Cn2nc(C(F)(F)F)cc2C2CC2)c1	-14.3% (inactive)
CCn1c(SCC(=O)NC(C)c2ccccc2)nc2ccccc21 (stereo not given)	0.7% (inactive)
Cn1nc(C(=O)NCC2CCCO2)c2ccccc2c1=O (stereo not given)	0% (inactive)
O=C1C2CCCN2C(c2cccnc2)N1c1ccc(Cl)c(Cl)c1 (stereo not given)	3.6% (inactive)
N#CCc1nc2c3c4c(sc3ncn2n1)CCCC4	-15.1% (inactive)
C=CCNC(=O)c1c(Cl)cccc1Cl	-5.1% (inactive)
COc1ccc(-c2cc3ccccc3oc2=O)cc1NC(=O)c1ccc([N+](=O)[O-])o1	-8.3% (inactive)
CC1C(c2ccccc2)C(C#N)(C#N)C2(C#N)C(=O)NC1(N)C2C (stereo not given)	0.4% (inactive)
COc1cccc(CNC(=O)C(=O)NCC2CCCO2)c1 (stereo not given)	-16.1% (inactive)
O=C(O)c1cc2nc3c(c(C(F)(F)F)n2n1)CCc1ccccc1-3	3.7% (inactive)
Cc1cc(N2CCOCC2)c2c(N)c(C)cc(C)c2n1	-8.7% (inactive)
N#Cc1c(NCc2ccccc2)ccnc1NCc1cccnc1	1.2% (inactive)
CCc1ccc(-c2nc(CN3CCC(C(=O)NCc4ccco4)CC3)c(C)o2)cc1	9.2% (inactive)
C=CCOC(=O)C1=C(C)OC(N)=C(C#N)C12C(=O)N(CN1CCOCC1)c1ccccc12 (stereo not given)	-12.8% (inactive)
COC(=O)c1ccc(-n2nnnc2SCC(=O)N2CCCCC2)cc1	3.1% (inactive)
OCCN=C1CCCc2c1[nH]c1ccc(Br)cc21	-20.7% (inactive)
COc1ccc(NC(=O)N(Cc2ccc3c(c2)OCO3)C2CC(=O)N(c3ccc(OC)cc3)C2=O)cc1 (stereo not given)	-22.4% (inactive)
CCCC(C(=O)NC1CCCC1)N(CCCN1CCOCC1)C(=O)c1snc(C(N)=O)c1N (stereo not given)	-2.3% (inactive)
